The values below come from patent publication US20250382305A1 (PTC THERAPEUTICS, INC., priority 2022, published 2025).

The test system of test [1] is Total ATXN3 (tATXN3) protein. The test can be described thus: Endogenous Total ATXN3 (tATXN3) Protein Assay (MSD immunoassay of cell lysates). Format: cell-based. Particulars: average IC50, total ATXN3 protein in cell lysate after 48 h with compound (Table 1). On the procedure:
Endogenous Total ATXN3 (tATXN3) Protein Assay
Meso Scale Discovery (MSD) 96-well or 384-well plates were coated overnight at 4° C. with Ataxin 3 mouse monoclonal antibody (Invitrogen, MA3-082) at a concentration of 0.5 μg/mL in PBS (30 μL per well). Plates were then washed three times with 300 μL wash buffer (0.05% TWEEN®-20, polyethylene glycol sorbitan monolaurate, in PBS) and blocked (Meso Scale Diagnostics, R93BA-1; 5% BSA in PBS) for 2 h at RT with rotational shaking and then washed three times with wash buffer.
(§1) Test compounds were serially diluted 3.16-fold in 100% DMSO to generate a 7-point concentration curve. Aliquots of 0.5 μL of diluted compounds were transferred to a 96-well flat bottom plate by a liquid handler. An aliquot of 0.5 μL DMSO was also transferred to separate wells and used as controls. Duplicate samples were set up for each compound concentration and for the DMSO control.
Cells were thawed and incubated in cell culture media (DMEM, 10% FBS, and 1% antibiotic cocktail) for 72 h. Cells were trypsinized, counted, and re-suspended to a concentration of 100,000 cells/mL in cell culture media. A 100 μL aliquot of the cell suspensions were plated at 10,000 cells per well in the compound containing 96 well microtiter plate and incubated for in a cell culture incubator (37° C., 5% CO2, 100% relative humidity). After 48 h, the medium was removed and 50-100 μL of lysis buffer (Meso Scale Diagnostics, R60TX-2) containing 1× halt protease inhibitor cocktail of (Thermo Scientific, Halt™ Protease Inhibitor Cocktail, 78430) per well was added to cells to provide a “cell lysate”. The plate was placed on a shaker at 4° C. for 30 minutes, then stored at −80° C.
Cell lysate samples (25 μL) were transferred to the antibody-coated MSD plate and incubated overnight at 4° C. After removal of the lysates, the plate was washed three times with wash buffer, and 25 μL of Ataxin 3 recombinant rabbit monoclonal antibody (Invitrogen, #702788) secondary antibody (diluted to 0.25 μg/mL in 0.05% TWEEN®-20 in blocking buffer) was added to each well and incubated with shaking for 1-2 h at room temperature. Following incubation with the secondary antibody, the wells were rinsed with wash buffer and then 25 μL of Anti Rabbit Antibody Goat SULFO-TAG Labeled (Meso Scale Diagnostics, R32AB-1) detecting antibody (diluted to […] in 0.05% TWEEN®-20 in blocking buffer) was added to each well and incubated with shaking for 1 h at room temperature. After rinsing three times with wash buffer, 150 μL of Read Buffer T with surfactant (tris-based buffer containing tripropylamine, Meso Scale Diagnostics, R92TC-1) were added to each empty well, and the plate was imaged on a SI 6000 imager (MSD) according to manufacturers' instructions provided for 96- or 384-well plates.
(§2) An average IC50>1 μM is indicated by one star (*), between >0.3 μM and ≤1 μM is indicated by two stars (**), between >0.03 μM and ≤0.3 μM is indicated by three stars (***), and ≤0.03 μM is indicated by four stars (****).

The next test concerns ATXN3 pre-mRNA. The test is described as follows: RT-qPCR Assay to Quantify Exon 4 Skipping in ATXN3 pre-mRNA in Cells. Format: cell-based. To be noted: percent exon 4 skipping in ATXN3 pre-mRNA, RT-qPCR of cell lysates; average IC50. On the procedure:
RT-qPCR Assay to Quantify Exon 4 Skipping in ATXN3 pre-mRNA in Cells
as §1
Cells were thawed and incubated in cell culture media (DMEM, 10% FBS, and 1% antibiotic cocktail) for 72 h. Cells were trypsinized, counted, and re-suspended to a concentration of 100,000 cells/mL in cell culture media. A 100 μL aliquot of the cell suspensions were plated at 10,000 cells per well in the compound containing 96 well microtiter plate and incubated for in a cell culture incubator (37° C., 5% CO2, 100% relative humidity).
After 24 h, media was aspirated from the cells and 50 μL of the RCL2 lysis buffer (10 mM Tris-HCL pH 7.4, 150 mM NaCl, 0.33% IGEPAL® CA-630) was added to each well and incubated at RT for 1 min. Chilled nuclease free water (50 μL per well) was added and the plates were immediately transferred on ice. After 1 min on ice, plates were frozen at −80° C. overnight.
Preparation of RT-qPCR Reaction Mixture:
An aliquot of 2 μL/well of the cell lysates was transferred using the liquid handler to the Armadillo 384-Well PCR plate containing 8 μL/well of the RT-qPCR reaction mixture that was prepared as detailed above. The plates were then sealed with MicroAmp™ Optical Adhesive Film followed by spinning down for 1 min and placed in the CFX384 thermocycler (BioRad).
The RT-qPCR was carried out at the following temperatures for the indicated time: • Step 1: 48° C. (30 min) • Step 2: 95° C. (10 min) • Step 3: 95° C. (15 sec) • Step 4: 60° C. (1 min); then, repeated Steps 3 and 4 for a total of 40 cycles.
The percent exon 4 skipping was calculated for each dose of compound treatment using Equations 1 and 2.
Data were fit to a dose response curve and the IC50 was interpolated using XLfit® statistical and curve fitting package.
as §2
(In general: Real-time PCR tracks product formation cycle by cycle.)

pIC50: −log10 of the molar value.

As to “2-((2R,3R)-3-aminotetrahydro-2H-pyran-2-yl)-5-chloro-N-(2-fluorobenzyl)thieno[3,2-b]pyridin-7-amine and 2-((2S,3S)-3-aminotetrahydro-2H-pyran-2-yl)-5-chloro-N-(2-fluorobenzyl)thieno[3,2-b]pyridin-7-amine [Compound 28]”, the pIC50 (in test [1]; with ATXN3 pre-mRNA) was less than 6.00 each time.

With “2-((2R,3R)-3-aminotetrahydro-2H-pyran-2-yl)-5-chloro-N-(furan-2-ylmethyl)-3-methylthieno[3,2-b]pyridin-7-amine and 2-((2S,3S)-3-aminotetrahydro-2H-pyran-2-yl)-5-chloro-N-(furan-2-ylmethyl)-3-methylthieno[3,2-b]pyridin-7-amine [Compound 25]”, the pIC50 (in test [1]; in the test with ATXN3 pre-mRNA) was 6.52 to 7.52 throughout.

In the case of “2-((2R,3R)-3-aminotetrahydro-2H-pyran-2-yl)-N-benzyl-5-chlorothieno[3,2-b]pyridin-7-amine and 2-((2S,3S)-3-aminotetrahydro-2H-pyran-2-yl)-N-benzyl-5-chlorothieno[3,2-b]pyridin-7-amine [Compound 26]”, the pIC50 (in test [1]; with ATXN3 pre-mRNA) was 6.00 to 6.52 in each case.

In the case of “2-((2R,3R)-3-aminotetrahydrofuran-2-yl)-3-bromo-5-chloro-N-(thiophen-2-ylmethyl)thieno[3,2-b]pyridin-7-amine and 2-((2S,3S)-3-aminotetrahydrofuran-2-yl)-3-bromo-5-chloro-N-(thiophen-2-ylmethyl)thieno[3,2-b]pyridin-7-amine [Compound 151]”, the pIC50 (in test [1]; in the test on ATXN3 pre-mRNA) was 6.52 to 7.52 in each case.

Regarding “2-((2R,3R,5R)-3-amino-5-methyltetrahydro-2H-pyran-2-yl)-3-bromo-5-chloro-N-(thiophen-2-ylmethyl)thieno[3,2-b]pyridin-7-amine and 2-((2S,3S,5S)-3-amino-5-methyltetrahydro-2H-pyran-2-yl)-3-bromo-5-chloro-N-(thiophen-2-ylmethyl)thieno[3,2-b]pyridin-7-amine [Compound 284]”, the pIC50 (in test [1]; in the test on ATXN3 pre-mRNA) was 6.52 to 7.52 throughout.

With “2-((2R,3S)-3-aminopiperidin-2-yl)-3-bromo-5-chloro-N-(thiophen-2-ylmethyl)thieno[3,2-b]pyridin-7-amine and 2-((2S,3R)-3-aminopiperidin-2-yl)-3-bromo-5-chloro-N-(thiophen-2-ylmethyl)thieno[3,2-b]pyridin-7-amine [Compound 46]”, the pIC50 (in test [1]; in the test on ATXN3 pre-mRNA) was less than 6.00 in each case.

For “2-((2R,3S)-3-aminotetrahydrofuran-2-yl)-3-bromo-5-chloro-N-(thiophen-2-ylmethyl)thieno[3,2-b]pyridin-7-amine and 2-((2S,3R)-3-aminotetrahydrofuran-2-yl)-3-bromo-5-chloro-N-(thiophen-2-ylmethyl)thieno[3,2-b]pyridin-7-amine [Compound 150]”, the pIC50 (in test [1]; in the test with ATXN3 pre-mRNA) was 6.52 to 7.52 in each case.

“2-((3R,4R)-3-aminotetrahydro-2H-pyran-4-yl)-3-bromo-5-chloro-N-(thiophen-2-ylmethyl)thieno[3,2-b]pyridin-7-amine and 2-((3S,4S)-3-aminotetrahydro-2H-pyran-4-yl)-3-bromo-5-chloro-N-(thiophen-2-ylmethyl)thieno[3,2-b]pyridin-7-amine [Compound 146]”: the pIC50 (in test [1]; with ATXN3 pre-mRNA) was less than 6.00 each time.

For the substance “2-((3R,4S)-3-aminotetrahydro-2H-pyran-4-yl)-3,5-dichloro-N-(furan-2-ylmethyl)thieno[3,2-b]pyridin-7-amine and 2-((3S,4R)-3-aminotetrahydro-2H-pyran-4-yl)-3,5-dichloro-N-(furan-2-ylmethyl)thieno[3,2-b]pyridin-7-amine [Compound 314]”, the pIC50 (in test [1]; in the test with ATXN3 pre-mRNA) was 6.52 to 7.52 in each case.

Regarding “2-((3R,4S)-3-aminotetrahydro-2H-pyran-4-yl)-3-bromo-5-chloro-N-(furan-2-ylmethyl)thieno[3,2-b]pyridin-7-amine and 2-((3S,4R)-3-aminotetrahydro-2H-pyran-4-yl)-3-bromo-5-chloro-N-(furan-2-ylmethyl)thieno[3,2-b]pyridin-7-amine [Compound 316]”, the pIC50 (in test [1]; in the test on ATXN3 pre-mRNA) was 6.52 to 7.52 each time.

Consider “2-((3R,4S)-3-aminotetrahydro-2H-pyran-4-yl)-5-chloro-3-(prop-1-yn-1-yl)-N-(thiophen-2-ylmethyl)thieno[3,2-b]pyridin-7-amine and 2-((3S,4R)-3-aminotetrahydro-2H-pyran-4-yl)-5-chloro-3-(prop-1-yn-1-yl)-N-(thiophen-2-ylmethyl)thieno[3,2-b]pyridin-7-amine [Compound 227]”, for which the pIC50 (in test [1]; with ATXN3 pre-mRNA) was not below 7.52 in each case.

“2-((3R,4S)-3-aminotetrahydro-2H-pyran-4-yl)-5-chloro-3-iodo-N-(thiophen-2-ylmethyl)thieno[3,2-b]pyridin-7-amine and 2-((3S,4R)-3-aminotetrahydro-2H-pyran-4-yl)-5-chloro-3-iodo-N-(thiophen-2-ylmethyl)thieno[3,2-b]pyridin-7-amine [Compound 275]”: the pIC50 (in test [1]; in the test on ATXN3 pre-mRNA) was 6.52 to 7.52 in each case.

As to “2-((3R,4S)-3-aminotetrahydro-2H-pyran-4-yl)-5-chloro-7-((thiophen-2-ylmethyl)amino)thieno[3,2-b]pyridine-3-carbonitrile and 2-((3S,4R)-3-aminotetrahydro-2H-pyran-4-yl)-5-chloro-7-((thiophen-2-ylmethyl)amino)thieno[3,2-b]pyridine-3-carbonitrile [Compound 393]”, the pIC50 (as a rule, −log10 of the IC50, conventionally taken in molar units) was 6.00 to 6.52 in test [1] and not below 7.52 with ATXN3 pre-mRNA.

Consider “2-((3R,4S)-3-aminotetrahydro-2H-pyran-4-yl)-5-chloro-N-(thiophen-2-ylmethyl)-3-vinylthieno[3,2-b]pyridin-7-amine and 2-((3S,4R)-3-aminotetrahydro-2H-pyran-4-yl)-5-chloro-N-(thiophen-2-ylmethyl)-3-vinylthieno[3,2-b]pyridin-7-amine [Compound 350]”, for which the pIC50 (in test [1]; with ATXN3 pre-mRNA) was 6.52 to 7.52 throughout.

Take “2-((3R,4S)-3-aminotetrahydro-2H-pyran-4-yl)-N-benzyl-3,5-dichlorothieno[3,2-b]pyridin-7-amine and 2-((3S,4R)-3-aminotetrahydro-2H-pyran-4-yl)-N-benzyl-3,5-dichlorothieno[3,2-b]pyridin-7-amine [Compound 388]”: the pIC50 (in test [1]; in the test on ATXN3 pre-mRNA) was 6.52 to 7.52 throughout.
